What was measured:
5-LO [1] = target: T1, 5-LO (Rattus norvegicus, UniProt P12527); experiment: Test c) in vivo zymosan-induced LTB4 liberation in rat air pouch; conditions: male rats, oral
T1 construct: liberation of LTB4 induced by zymosan within an air pouch generated within the subcutaneous tissue of the back of male rats; from tissue
T1 sequence (P12527 1-673): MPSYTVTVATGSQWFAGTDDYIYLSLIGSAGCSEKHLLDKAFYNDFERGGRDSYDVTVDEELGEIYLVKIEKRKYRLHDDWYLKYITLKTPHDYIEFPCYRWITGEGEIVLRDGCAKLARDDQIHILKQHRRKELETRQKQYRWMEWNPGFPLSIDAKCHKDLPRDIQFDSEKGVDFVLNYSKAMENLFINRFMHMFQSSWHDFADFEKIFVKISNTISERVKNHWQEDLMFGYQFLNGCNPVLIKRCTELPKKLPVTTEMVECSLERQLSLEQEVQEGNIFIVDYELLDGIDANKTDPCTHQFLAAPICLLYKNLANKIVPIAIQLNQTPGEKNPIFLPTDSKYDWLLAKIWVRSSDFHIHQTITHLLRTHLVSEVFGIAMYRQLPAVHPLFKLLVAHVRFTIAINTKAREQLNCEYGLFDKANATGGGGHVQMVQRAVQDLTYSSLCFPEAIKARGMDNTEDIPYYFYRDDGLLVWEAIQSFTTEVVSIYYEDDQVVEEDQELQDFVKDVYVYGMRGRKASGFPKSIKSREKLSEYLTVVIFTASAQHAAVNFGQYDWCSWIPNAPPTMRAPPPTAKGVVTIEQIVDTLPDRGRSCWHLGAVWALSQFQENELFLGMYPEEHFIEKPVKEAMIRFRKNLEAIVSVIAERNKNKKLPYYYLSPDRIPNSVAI
Experimental: (§1) As stated previously, the novel compounds of the formula I are inhibitors of the enzyme 5-LO.
c) An in vivo system involving measuring the effects of a test compound administered orally against the liberation of LTB4 induced by zymosan within an air pouch generated within the subcutaneous tissue of the back of male rats. The rats are anaesthetised and air pouches are formed by the injection of sterile air (20 ml). A further injection of air (10 ml) is similarly given after 3 days. At 6 days after the initial air injection the test compound is administered (usually orally as the suspension produced when a solution of the test compound in dimethylsulphoxide is added to hydroxypropylmethylcellulose), followed by the intrapouch injection of zymosan (1 ml of a 1% suspension in physiological saline). After 3 hours the rats are killed, the air pouches are lavaged with physiological saline, and the specific radioimmunoassay described above is used to assay LTB4 in the washings. This test provides an indication of inhibitory effects against 5-LO in an inflammatory milieu.

5-LO [2] = target: T2, 5-LO (Homo sapiens, UniProt P09917); experiment: Test a) in vitro human blood assay, A23187 challenge, LTB4 radioimmunoassay; type: cell-based; conditions: heparinised human blood
T2 construct: incubating a test compound with heparinised human blood, prior to challenge with the calcium ionphore A23187; endogenous in cells; host or cells: blood cells in heparinised human blood
T2 sequence (P09917 1-674): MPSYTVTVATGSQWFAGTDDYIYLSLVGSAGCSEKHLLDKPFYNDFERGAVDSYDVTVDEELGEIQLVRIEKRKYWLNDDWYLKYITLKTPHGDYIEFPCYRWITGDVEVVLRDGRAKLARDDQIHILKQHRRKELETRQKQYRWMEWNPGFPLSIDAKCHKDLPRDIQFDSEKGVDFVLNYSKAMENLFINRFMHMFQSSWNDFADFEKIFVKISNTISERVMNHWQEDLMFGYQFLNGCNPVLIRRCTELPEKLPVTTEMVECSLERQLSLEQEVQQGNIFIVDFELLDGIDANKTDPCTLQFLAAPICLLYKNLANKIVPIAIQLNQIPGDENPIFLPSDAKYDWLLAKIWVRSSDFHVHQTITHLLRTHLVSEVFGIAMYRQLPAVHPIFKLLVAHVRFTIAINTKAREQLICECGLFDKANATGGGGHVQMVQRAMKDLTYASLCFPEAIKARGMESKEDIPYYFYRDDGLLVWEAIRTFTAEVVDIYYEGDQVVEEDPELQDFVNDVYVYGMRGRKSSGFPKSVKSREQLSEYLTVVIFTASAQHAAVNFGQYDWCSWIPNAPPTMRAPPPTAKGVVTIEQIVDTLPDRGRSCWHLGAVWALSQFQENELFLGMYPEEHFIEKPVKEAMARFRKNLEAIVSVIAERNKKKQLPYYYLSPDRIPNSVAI
Experimental: as §1
a) An in vitro assay system involving incubating a test compound with heparinised human blood, prior to challenge with the calcium ionphore A23187 and then indirectly measuring the inhibitory effects on 5-LO by assaying the amount of LTB4 using specific radioimmunoassays described by Carey and Forder (Prostaglandins, Leukotrienes Med., 1986, 22, 57; Prostaglandins, 1984, 28, 666; Brit. J. Pharmacol., 1985, 84, 34P) which involve the use of a protein-LTB4 conjugate produced using the procedure of Young et alia (Prostaglandins, 1983, 26(4), 605-613). The effects of a test compound on the enzyme cyclooxygenase (which is involved in the alternative metabolic pathway for arachidonic acid and gives rise to prostaglandins, thromboxanes and related metabolites) may be measured at the same time using the specific radioimmunoassay for thromboxane B2 (TxB2) described by Carey and Forder (see above). This test provides an indication of the effects of a test compound against 5-LO and also cyclooxygenase in the presence of blood cells and proteins. It permits the selectivity of the inhibitory effect on 5-LO or cyclooxygenase to be assessed.

Row | ED50 (5-LO [1]) [mg/kg] | IC50 (5-LO [2]) [nM] | Compound
1 | 1.5 | 4200 | COC1(c2cccc(Sc3ccc(S(=O)(=O)Nc4ccc(Cl)cn4)cc3)c2)CCOCC1 [Example 4, N-(5-chloropyrid-2-yl)-4[3-(4-methoxytetrahydropyran-4-yl)phenylthio]benzenesulphonamide]
2 | 1.5 | 1000 | COC1(c2cccc(Sc3ccc(S(=O)(=O)Nc4nccs4)cc3)c2)CCOCC1 [Example 6, 4-[3-(4-methoxytetrahydropyran-4-yl)phenylthio]-N-(2-thiazolyl)benzenesulphonamide]

Source: patent US5314891A, “Benzenesulphonamide derivatives” (Imperial Chemical Industries PLC, priority 1991, dated 1994)
